Consider four compounds from PMC4761914, “Improvement of pyrazolo[3,4-d]pyrimidines pharmacokinetic properties: nanosystem approaches for drug delivery” (Scientific Reports, 2016).

Where two headings read alike, the source gives them in different places.

In one series the test system is SH-SY5Y NB cells. The series can be described thus: Antiproliferative activity / cytotoxicity, Trypan blue assay. The settings on record: Homo sapiens. It counts as cell-based. The protocol: In vitro experiments were carried out using the human NB cell line SH-SY5Y. Cells were purchased from American Type Culture Collection (ATCC, Manassas, VA, USA) and were cultured in DMEM/F12 1:1 medium supplemented with 10% FBS, 2 mM L-glutamine and 10000 units/mL Penicillin/Streptomycin at 37 °C in 5% CO2 atmosphere. In order to determine the antiproliferative effect of drugs (1–4) and nanosystems, SH-SY5Y cells were seeded at 10^5 cells/well density and treated with albumin (PBS solution, pH 7.4) or empty liposomes (0.9% NaCl solution, pH 7.4), compounds encapsulated with albumin (PBS solution, pH 7.4) or liposomes LP-1, LP-3 and LP-4 (0.9% NaCl solution, pH 7.4) and free compounds 1, 3 and 4 (DMSO solution) at increasing concentrations (0.1 μM, 1.0 μM, 10 μM and 50 μM). IC50 determination for LP-2 and compound 2 was performed testing the following concentrations as well: 0.01 μM, 0.05 μM, 0.5 μM and 5 μM. The cultures were maintained at 37 °C in 5% v/v CO2 for 24, 48 and 72 h. Cell number and viability were evaluated using the Bürker chamber, after treatment with Trypan Blue. IC50 was calculated by GraphPad Prism 6.0 software using the best fitting sigmoid curve.

Another series concerns the target Src. Also noted: method as in PMID 25469771, PMID 21050441, PMID 21856155. The following applies: cited from earlier work.
Details of series [1]: method as in PMID 25469771, PMID 21050441, PMID 21856155. The settings on record: cited from earlier work; for PAMPA: pH 7.4, 5 hours, room temperature; for MR (Membrane Retention): percentage of compound unable to reach the acceptor compartment.
Details of series [2]: method as in PMID 25469771, PMID 21050441, PMID 21856155. The following applies: percentage of unmodified drug, human liver microsomes, 37 °C, 60 min; cited from earlier work.
The conditions of series [3]: H2O, 20 °C, 24 hrs; cited from earlier work.
A short description of series [4]: Entrapment efficiency by HPLC-UV-MS after disruption of nanoparticles. The following applies: compound encapsulated in albumin nanoparticles. In kind it is physicochemical. As to the method:
The albumin nanoparticles were prepared by mixing 100 μL of compound solution in EtOH (1 mg/mL) with 900 μL of HSA solution in PBS (pH 7.4, 25 mM) (5 mg/mL)[52]. Cysteine was added up to a final concentration of 5 mg/mL, and the resulting solution was kept at 37 °C, for 45 min. The excess of cysteine was eliminated by dialysis using a cellulose membrane (capacity 60 mL/ft, cut-off 14 kDa, diameter 16 mm, width 25mm). D,L-glyceraldehyde was added to this solution, to a final concentration of 5 μM[53]. The sample was then filtered through a nylon syringe filter with pores of 0.2 μm (Acrodisc 25 mm Syringe Filter) to obtain a sterile solution of the drug-albumin nanoparticles. The concentration of the compound in the final sample was determined by HPLC-UV-MS (HPLC-UV-MS method in the supporting material), after denaturation of the protein by acetonitrile and centrifugation (4500 rpm, 15 min, 4 °C).
The method developed by A.D. Bangham, namely thin layer evaporation, was used for the preparation of LP-1, LP-2, LP-3 and LP-4. Lipids DPPC, Chol and MPEG-2000-DPPE Na (molar ratio 20:10:1) were dissolved in a mixture of CHCl3:MeOH = 3:1 (3 mL, round-bottomed flask). A 1 mM solution of each compound (1, 2, 3, 4) in CHCl3:MeOH = 3:1 was prepared. […] The drug concentration was determined after disruption of liposomes by treatment with ethanol at 40 °C (1:1 = v/v). The compound was extracted and quantified by HPLC-UV-MS (HPLC-UV-MS method in the supporting material). […]
E.E.%c NDd NDd NDd NDd NDd NDd NDd NDd NDd NDd NDd aCalculated on the basis of the total amount of compound dissolved in the organic solvent; bat 37 °C; c at 45°C. dND: compound not detected after filtration 0.2 µm syringe filter. […]
The percentage of entrapment efficacy was calculated with the following equation: […]
where, Fi is the concentration of compound determined in the nano-preparation (evaluated by HPLC-UV-MS, after disruption of nanoparticles) and Ft is the theoretical final concentration (Calculated on the basis of the total amount of compound dissolved in the organic solvent). […]

Take `CC(Cn1ncc2c(Nc3cccc(Cl)c3)nc(SCCN3CCOCC3)nc21)c1ccccc1` (stereo not shown) [Compound 3]: the concentration for half-maximal inhibition (IC50) in the series on SH-SY5Y NB cells (24 h, read-out: IC50 24 h) is 3.04 ± 0.09 µM; in the series on SH-SY5Y NB cells (48 h, read-out: IC50 48 h), 2.65 ± 0.08 µM; in the series with SH-SY5Y NB cells (72 h, read-out: IC50 72 h), 1.54 ± 1.07 µM. Further, the Ki on Src is 0.4 µM. For the same compound, in series [1], the PAMPA was 5.51 10^−6 cm^2/sec. The “MR (Membrane Retention)” value in series [1] is 48.9%. For the same compound, the “Metabolic Stability” value in series [2] was 97.9%. The “Aqueous Solubility” value in series [3] is 0,22 μg/mL.
In series [4], `CC(C)Sc1nc(Nc2cccc(O)c2)c2cnn(CC(Cl)c3ccccc3)c2n1` (stereo not shown) [Compound 4] came in with a drug loading of 50%. Further, the IC50 in the series with SH-SY5Y NB cells (24 h, read-out: IC50 24 h) came out at 13.6 ± 0.94 µM; with SH-SY5Y NB cells (48 h, read-out: IC50 48 h), 10.1 ± 0.5 µM; in the series with SH-SY5Y NB cells (72 h, read-out: IC50 72 h) it was 8.63 ± 0.75 µM. The Ki at Src is 0.01 µM. Moreover, the PAMPA in series [1] is recorded as 4.53 10^−6 cm^2/sec. Moreover, in series [1], the “MR (Membrane Retention)” value is given as 49.6%. The “Metabolic Stability” value in series [2] was 93.5%. Further, the “Aqueous Solubility” value in series [3] was 0,90 μg/mL.
In series [4], `ClC(Cn1ncc2c(Nc3cccc(Br)c3)nc(SCCN3CCOCC3)nc21)c1ccccc1` (stereo not shown) [Compound 2] came in with a drug loading of 50%. The IC50 in the series on SH-SY5Y NB cells (24 h, read-out: IC50 24 h) is 12.6 ± 1.6 µM; in the series with SH-SY5Y NB cells (48 h, read-out: IC50 48 h), 2.66 ± 0.015 µM; in the series with SH-SY5Y NB cells (72 h, read-out: IC50 72 h) it was 2.28 ± 0.29 µM. Also, the Ki on Src is 0.13 µM. In series [2], the “Metabolic Stability” value was 96.0%.
Take `CSc1nc(NCc2ccccc2)c2cnn(CC(Cl)c3ccccc3)c2n1` (stereo not shown) [Compound 1]: the drug loading entry in series [4] is “around 6%”. Besides, the IC50 worked out at 21.8 ± 1.7 µM in the series with SH-SY5Y NB cells (24 h, read-out: IC50 24 h); 16.5 ± 1.67 µM in the series on SH-SY5Y NB cells (48 h, read-out: IC50 48 h); 13.5 ± 2 µM in the series on SH-SY5Y NB cells (72 h, read-out: IC50 72 h). Besides, the PAMPA in series [1] is given as 3.98 10^−6 cm^2/sec. Further, the “MR (Membrane Retention)” value in series [1] was 46.8%. For the same compound, in series [2], the “Metabolic Stability” value was 95.8%. In series [3], the “Aqueous Solubility” value is given as 0,21 μg/mL.
